Data as given in patent US6737383B1, “Herbicidal oxadiazolidines” (priority 1999, dated 2004).

Tests used:
crabgrass = assay: Test B pre/postemergence crabgrass; format: in vivo, Digitaria sanguinalis
Summary of the method: (§1)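 Test chemicals in a non-phytotoxic solvent mixture with surfactant were sprayed preemergence onto planted seeds and postemergence onto plants 2 to 18 cm tall (1- to 4-leaf stage). After twelve to sixteen days in a greenhouse, injury was visually rated against untreated controls from 0 (no effect) to 10 (complete control).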

purple nutsedge = assay: Test B pre/postemergence purple nutsedge; format: in vivo, Cyperus rotundus
Summary of the method: as §1

duck salad = assay: Test B flood test duck salad; format: in vivo, Heteranthera limosa
Summary of the method: (§2)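 Each value is a visual injury score relative to controls, with 10 meaning complete control and 0 no effect. Evaluation took place twelve to sixteen days after the 2-leaf-stage plants were treated and kept in the greenhouse.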

bamyardgrass = assay: Test B flood test barnyardgrass; format: in vivo, Echinochloa crus-galli
Summary of the method: as §2

winter wheat [1] = assay: Test E winter wheat; format: in vivo, Triticum aestivum; settings: Postemergence
Summary of the method: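 For postemergence, plants at the 1- to 4-leaf stage, in a 60:40 mix of sandy loam and potting mix, treated with compound formulated in a surfactant-containing non-phytotoxic solvent. Visual assessment versus untreated controls followed roughly 21–28 days in the greenhouse.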

blackgrass = assay: Test E blackgrass; format: in vivo, Alopecurus myosuroides; settings: Preemergence
green foxtail = assay: Test E green foxtail; format: in vivo, Setaria viridis; settings: Preemergence
Italian ryegrass = assay: Test E Italian ryegrass; format: in vivo, Lolium multiflorum; settings: Preemergence
winter wheat [2] = assay: Test E winter wheat; format: in vivo, Triticum aestivum; settings: Preemergence
wild oat = assay: Test E wild oat; format: in vivo, Avena fatua; settings: Preemergence
winter barley = assay: Test E winter barley; format: in vivo, Hordeum vulgare; settings: Preemergence
[3] = Preemergence, Rate 62 g/ha, scale of 0 to 10 where 0 is no effect and 10 is complete control
[4] = Preemergence, Rate 250 g/ha, scale of 0 to 10 where 0 is no effect and 10 is complete control
[5] = Preemergence, Rate 500 g/ha, scale of 0 to 10 where 0 is no effect and 10 is complete control
[6] = Rate 125 g/ha, Postemergence, scale of 0 to 10 where 0 is no effect and 10 is complete control
[7] = Rate 125 g/ha, Preemergence, scale of 0 to 10 where 0 is no effect and 10 is complete control
[8] = Rate 250 g/ha, Postemergence, scale of 0 to 10 where 0 is no effect and 10 is complete control
[9] = Rate 500 g/ha, Postemergence, scale 0 to 10, 0 no effect, 10 complete control
[10] = Rate 62 g/ha, headed Pre-emergence (flood test species), scale 0 to 10 (0 no effect, 10 complete control)
[11] = Rate 125 g/ha, Pre-emergence, flood test species, scale 0 to 10 where 0 is no effect and 10 is complete control
[12] = Rate 250 g/ha, Pre-emergence, flood-test species, scale 0 to 10, 0 is no effect, 10 is complete control
[13] = Rate 500 g/ha, Pre-emergence, flood test species, scale 0 to 10 (0 no effect, 10 complete control)
[14] = Rate 1000 g/ha, 0 to 100 scale where 0 is no effect and 100 is complete control
[15] = Rate 250 g/ha, 0 to 100 scale where 0 is no effect and 100 is complete control
[16] = Rate 500 g/ha, 0 to 100 scale, 0 is no effect, 100 is complete control
[17] = Rate 500 g/ha, 0 to 100 scale where 0 is no effect and 100 is complete control
[18] = Rate 1000 g/ha, 0 to 100 scale, 0 no effect, 100 complete control
[19] = Rate 62 g/ha, Postemergence, scale 0 to 10, 0 no effect, 10 complete control
[20] = Rate 500 g/ha, 0 to 100 scale (0 no effect, 100 complete control)
[21] = Postemergence, Rate 125 g/ha, scale 0 to 10, 0 is no effect, 10 is complete control
[22] = Preemergence, Rate 62 g/ha, scale 0 to 10 (0 no effect, 10 complete control)
[23] = Rate 62 g/ha, Postemergence, scale of 0 to 10 where 0 is no effect and 10 is complete control
[24] = Rate 62 g/ha, flood test species, Pre-emergence, visual evaluation after twelve to sixteen days

## Cc1ccccc1-n1c(=O)on(C(=O)N(c2cccc(F)c2)C(C)C)c1=O [Compound 269]
crabgrass; [3]
  Crabgrass plant response rating: 0
crabgrass; [4]
  Crabgrass plant response rating: 3
crabgrass; [5]
  Plant response rating, Crabgrass: 6
crabgrass; [6]
  Crabgrass plant response rating: 0
crabgrass; [7]
  Crabgrass plant response rating: 2
crabgrass; [8]
  Plant response rating, Crabgrass: 0
crabgrass; [9]
  Crabgrass plant response rating: 1
Purple nutsedge; [3]
  Nutsedge plant response rating: 0
Purple nutsedge; [6]
  Nutsedge plant response rating: 0
Purple nutsedge; [7]
  Nutsedge plant response rating: 0
Purple nutsedge; [8]
  Plant response rating, Nutsedge: 0
Purple nutsedge; [9]
  Nutsedge plant response rating: 0
Duck salad; [10]
  Ducksalad plant response rating: 0
Duck salad; [11]
  Ducksalad plant response rating: 0
Duck salad; [12]
  Ducksalad plant response rating: 0
Duck salad; [13]
  Ducksalad plant response rating: 0
bamyardgrass; [10]
  Barnyardgrass plant response rating: 0
bamyardgrass; [11]
  Barnyardgrass plant response rating: 0
bamyardgrass; [12]
  Barnyardgrass plant response rating: 0
bamyardgrass; [13]
  Barnyardgrass plant response rating: 0
Winter wheat [1]; [14]
  Plant response rating, Wheat (winter): 55
Winter wheat [1]; [15]
  Wheat (winter) plant response rating: 50
Winter wheat [1]; [16]
  Plant response rating, Wheat (winter): 40
blackgrass; Rate 250 g/ha
  Blackgrass plant response rating (0 to 100 scale): 40
blackgrass; [17]
  Plant response rating, Blackgrass: 30
blackgrass; [18]
  Plant response rating, Blackgrass: 40
Green foxtail; Rate 250 g/ha
  Green foxtail plant response rating (0 to 100 scale): 60
Green foxtail; [17]
  Plant response rating, Green foxtail: 70
Green foxtail; [18]
  Plant response rating, Green foxtail: 100
Italian ryegrass; Rate 250 g/ha
  I. Ryegrass plant response rating (0 to 100 scale): 50
Italian ryegrass; [17]
  Plant response rating, I. Ryegrass: 60
Italian ryegrass; [18]
  Plant response rating, I. Ryegrass: 70
Winter wheat [2]; Rate 250 g/ha
  Wheat (winter) plant response rating (0 to 100 scale): 60
Winter wheat [2]; [17]
  Plant response rating, Wheat (winter): 40
Winter wheat [2]; [18]
  Plant response rating, Wheat (winter): 50
Wild oat; Rate 250 g/ha
  Wild oat plant response rating (0 to 100 scale): 70
Wild oat; [17]
  Plant response rating, Wild oat: 70
Wild oat; [18]
  Plant response rating, Wild oat: 70
Winter barley; Rate 250 g/ha
  Barley (winter) plant response rating (0 to 100 scale): 30
Winter barley; [17]
  Plant response rating, Barley (winter): 50
Winter barley; [18]
  Plant response rating, Barley (winter): 60

## CC(C)N(C(=O)n1oc(=O)n(C2CCCC2)c1=O)c1ccc(Cl)cc1 [Compound 282]
crabgrass; [3]
  Crabgrass plant response rating: 1
crabgrass; [4]
  Crabgrass plant response rating: 6
crabgrass; [5]
  Plant response rating, Crabgrass: 8
crabgrass; [19]
  Crabgrass plant response rating: 0
crabgrass; [6]
  Crabgrass plant response rating: 0
crabgrass; [7]
  Crabgrass plant response rating: 1
crabgrass; [8]
  Plant response rating, Crabgrass: 0
crabgrass; [9]
  Crabgrass plant response rating: 0
Purple nutsedge; [3]
  Nutsedge plant response rating: 0
Purple nutsedge; [4]
  Nutsedge plant response rating: 0
Purple nutsedge; [19]
  Nutsedge plant response rating: 0
Purple nutsedge; [6]
  Nutsedge plant response rating: 0
Purple nutsedge; [7]
  Nutsedge plant response rating: 0
Purple nutsedge; [8]
  Plant response rating, Nutsedge: 0
Purple nutsedge; [9]
  Nutsedge plant response rating: 0
Duck salad; [10]
  Ducksalad plant response rating: 0
Duck salad; [11]
  Ducksalad plant response rating: 0
Duck salad; [12]
  Ducksalad plant response rating: 0
Duck salad; [13]
  Ducksalad plant response rating: 0
bamyardgrass; [10]
  Barnyardgrass plant response rating: 7
bamyardgrass; [11]
  Barnyardgrass plant response rating: 7
bamyardgrass; [12]
  Barnyardgrass plant response rating: 9
bamyardgrass; [13]
  Barnyardgrass plant response rating: 9
Winter wheat [1]; [14]
  Plant response rating, Wheat (winter): 50
Winter wheat [1]; [15]
  Wheat (winter) plant response rating: 20
Winter wheat [1]; [16]
  Plant response rating, Wheat (winter): 30
blackgrass; Rate 250 g/ha
  Blackgrass plant response rating (0 to 100 scale): 60
blackgrass; [20]
  Plant response rating, Blackgrass: 60
blackgrass; [18]
  Plant response rating, Blackgrass: 70
Green foxtail; Rate 250 g/ha
  Green foxtail plant response rating (0 to 100 scale): 80
Green foxtail; [20]
  Plant response rating, Green foxtail: 100
Green foxtail; [18]
  Plant response rating, Green foxtail: 100
Italian ryegrass; Rate 250 g/ha
  I. Ryegrass plant response rating (0 to 100 scale): 70
Italian ryegrass; [20]
  Plant response rating, I. Ryegrass: 70
Italian ryegrass; [18]
  Plant response rating, I. Ryegrass: 70
Winter wheat [2]; Rate 250 g/ha
  Wheat (winter) plant response rating (0 to 100 scale): 60
Winter wheat [2]; [20]
  Plant response rating, Wheat (winter): 60
Winter wheat [2]; [18]
  Plant response rating, Wheat (winter): 70
Wild oat; Rate 250 g/ha
  Wild oat plant response rating (0 to 100 scale): 70
Wild oat; [20]
  Plant response rating, Wild oat: 70
Wild oat; [18]
  Plant response rating, Wild oat: 80
Winter barley; Rate 250 g/ha
  Barley (winter) plant response rating (0 to 100 scale): 50
Winter barley; [20]
  Plant response rating, Barley (winter): 50
Winter barley; [18]
  Plant response rating, Barley (winter): 70

## CC(C)N(C(=O)n1oc(=O)n(C2CCCCCC2)c1=O)c1ccccc1 [Compound 341]
crabgrass; [21]
  Plant response rating, Crabgrass: 0
crabgrass; [22]
  Plant response rating, Crabgrass: 2
crabgrass; Preemergence, Rate 125 g/ha
  Crabgrass plant response rating (0 to 10 scale): 2
crabgrass; [4]
  Crabgrass plant response rating: 2
crabgrass; [5]
  Crabgrass plant response rating: 8
crabgrass; [23]
  Crabgrass plant response rating: 0
crabgrass; [9]
  Plant response rating, Crabgrass: 2
Purple nutsedge; [21]
  Plant response rating, Nutsedge: 0
Purple nutsedge; [22]
  Plant response rating, Nutsedge: 0
Purple nutsedge; Preemergence, Rate 125 g/ha
  Nutsedge plant response rating (0 to 10 scale): 0
Purple nutsedge; [4]
  Nutsedge plant response rating: 0
Purple nutsedge; [5]
  Nutsedge plant response rating: 0
Purple nutsedge; [23]
  Nutsedge plant response rating: 0
Purple nutsedge; [9]
  Plant response rating, Nutsedge: 0
Duck salad; [24]
  Plant response rating, Ducksalad (0 to 10 scale, 0 is no effect, 10 is complete control): 0
Duck salad; [11]
  Ducksalad plant response rating: 0
Duck salad; [12]
  Ducksalad plant response rating: 0
Duck salad; [13]
  Ducksalad plant response rating: 3
bamyardgrass; [24]
  Plant response rating, Barnyardgrass (0 to 10 scale, 0 is no effect, 10 is complete control): 2
bamyardgrass; [11]
  Barnyardgrass plant response rating: 8
bamyardgrass; [12]
  Barnyardgrass plant response rating: 9
bamyardgrass; [13]
  Barnyardgrass plant response rating: 9
Winter wheat [1]; Rate 250 g/ha, 0 to 100 scale, 0 is no effect, 100 is complete control
  Plant response rating, Wheat (winter): 70
Winter wheat [1]; [14]
  Plant response rating, Wheat (winter): 65
Winter wheat [1]; [16]
  Plant response rating, Wheat (winter): 65
blackgrass; Rate 250 g/ha, 0 to 100 scale
  Plant response rating, Blackgrass: 40
blackgrass; [20]
  Plant response rating, Blackgrass: 60
blackgrass; [18]
  Plant response rating, Blackgrass: 90
Green foxtail; Rate 250 g/ha, 0 to 100 scale
  Plant response rating, Green foxtail: 25
Green foxtail; [20]
  Plant response rating, Green foxtail: 55
Green foxtail; [18]
  Plant response rating, Green foxtail: 85
Italian ryegrass; Rate 250 g/ha, 0 to 100 scale
  Plant response rating, I. Ryegrass: 50
Italian ryegrass; [20]
  Plant response rating, I. Ryegrass: 55
Italian ryegrass; [18]
  Plant response rating, I. Ryegrass: 55
Winter wheat [2]; Rate 250 g/ha, 0 to 100 scale
  Plant response rating, Wheat (winter): 40
Winter wheat [2]; [20]
  Plant response rating, Wheat (winter): 50
Winter wheat [2]; [18]
  Plant response rating, Wheat (winter): 85
Wild oat; Rate 250 g/ha, 0 to 100 scale
  Plant response rating, Wild oat: 60
Wild oat; [20]
  Plant response rating, Wild oat: 70
Wild oat; [18]
  Plant response rating, Wild oat: 80
Winter barley; Rate 250 g/ha, 0 to 100 scale, 0 no effect, 100 complete control
  Plant response rating, Barley (winter): 70
Winter barley; [20]
  Plant response rating, Barley (winter): 60
Winter barley; [18]
  Plant response rating, Barley (winter): 80
